Data: US12624068B2, “Exon skipping by peptide nucleic acid derivatives” (OliPass Corporation, priority 2016, dated 2026)
{Fethoc} = N-terminal Fethoc capping group (publication's abbreviation); [C(1O2)] = modified PNA monomer acting as cytosine, C(pOq) type, 1O2; [A(5)] = modified PNA monomer acting as adenine, A(p) type, p=5; [G(6)] = modified PNA monomer acting as guanine, G(p) type, p=6; {NH2} = C-terminal non-substituted amino (amide) group

Tests used:
10-mer complementary DNA = test: Tm between PNA derivatives and 10-mer complementary DNA (N- or C-terminal); format: binding; conditions: uncorrected
Summary of the method: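 4 μM 10-mer PNA with 4 μM complementary 10-mer DNA in pH 7.16 buffer (10 mM sodium phosphate, 100 mM NaCl) was heated at 90 °C for a minute, slowly cooled to ambient, then Tm measured by UV absorbance at 260 nm.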

human AR pre-mRNA = test: AR nested PCR for exon skipping in MCF7 cells; format: cell-based; conditions: 3 hours
Protocol: “AR-ASO 1” was evaluated by AR nested PCR for its ability to induce the skipping of exon 5 of the human AR mRNA in MCF7 cells as follows. [Cell Culture & ASO Treatment] MCF7 cells (Cat. Number: HTB-22, ATCC) were maintained in EMEM medium supplemented with 10% FBS, 1% streptomycin/penicillin, and 0.01 mg/mL bovine insulin under 5% CO2 atmosphere at 37° C. Cells grown in 60 mm culture dish were treated with “AR-ASO 1” for 3 hours at 0 (negative control), 3, 30, 300 or 3,000 aM (i.e., 3 fM). [RNA Extraction] Total RNA was extracted using “Universal RNA Extraction Kit” (Cat. No. 9767, Takara) according to the manufacturer's instructions [cDNA Synthesis by One Step RT-PCR] […] NO: 55); and AR-exon 9_reverse: (5'→3') […] [Nested PCR Amplification] Throughout the amplification process, was used a unique amplification technique (touch up as increasing annealing temperature per cycle) that worked efficiently and specifically over a temperature range, rather than at one specific annealing temperature (i.e., conventional PCR method). […] NO: 57); and AR-exon 7n_reverse: (5'→3') […] […] The bands of target size were collected and analyzed by Sanger Sequencing. […] “AR-ASO 1” was evaluated for its exon skipping ability in MCF7 cells grossly showing the morphology of cumulus shape as described in “AR Example 1”, unless noted otherwise. […]

AR protein = test: AR western blot in MCF7 cells; format: cell-based, human; conditions: 10 zM to 30 aM, 48 hours
Protocol: 4 culture dishes for the negative control. 48 hours later, cells were washed 2× with cold PBS, and then subjected to lysis with 200 μL 1× cell lysis buffer (Cat. No. 9803, Cell Signaling Tech) supplemented with 1× protease inhibitors (Cat. No. P8340, Sigma). The lysates were collected in 1.5 mL e-tube. 200 μL of each lysate was mixed with 100 μL 3× sample buffer, and boiled for 5 min. 20 μL of each lysate (4 negative controls and 8 ASO treatment samples) was subjected to electrophoretic separation on a 8% SDS-PAGE gel, and transferred onto a PVDF membrane. The membrane was probed with an anti-AR antibody (Cat. Number 5153, Cell Signaling Tech) and an anti-3-actin antibody (Cat. Number sc4778, Santa Cruz).

AR mRNA = test: qPCR by SYBR Green for AR mRNA in MCF7 cells; conditions: 5 hours
Protocol: [ASO Treatment and RNA Extraction] […] (2 culture dishes per concentration) 5 hours later, total RNA was extracted using “MiniBEST Universal RNA Extraction Kit” according to the manufacturer's instructions (Cat. Number 9767, Takara).
[cDNA Synthesis with OligodT]
The PCR reactions were probed by SYBR Green (Takara, Japan).

human PD-1 pre-mRNA = test: PD-1 nested PCR for exon skipping in Jurkat cells; format: cell-based; conditions: 5 hours
Protocol: “PD-ASO 3” was evaluated for its ability to induce the skipping of the human PD-1 exon 2 in Jurkat cells as follows. [Cell Culture & ASO Treatment] Jurkat cells (Cat. Number TIB-152, ATCC) were maintained in RPMI-1640 supplemented with 10% FBS and 1% streptomycin/penicillin. Jurkat cells grown in 60 mm culture dish containing 5 mL culture medium were treated for 5 hours with “PD-ASO 5” at 0 (negative control), 10, 100 or 1,000 aM. [RNA Extraction and cDNA Synthesis by One Step RT-PCR] Total RNA was extracted using RNAeasy mini prep kit (Qiagen, USA) according to the manufacturer's protocol. […] NO: 153); and PD-exon 5_reverse: (5'→3') […] NO: 154)]. Cycle conditions: 50° C. for 30 minutes and 94° C. for 2 minutes, which was followed by 30 cycles of 30 seconds at 94° C., 30 seconds at 53° C., and 1 minutes at 72° C. [Nested PCR Amplification] 1 μL of cDNA diluted by 100× was further amplified in a 20 μL nested PCR (Invitrogen, USA) using the following cycle conditions: 20 seconds at 95° C., 30 seconds at 56° C., and 40 seconds at 72° C. for 40 cycles against a set of exon-specific primers [PD-exon 1n_forward: (5'→3') […] NO: 155); and PD-exon 5n_reverse: (5'→3') […] NO: 156)]. [Identification of Exon Skipping Products] The resulting nested PCR products were subjected to electrophoretic separation on a 2% agarose gel. The bands of target size were collected and analyzed by Sanger sequencing.

human PD-1 mRNA = test: PD-1 nested qPCR in Jurkat cells; format: cell-based; conditions: 24 hours
Protocol: [Cell Culture & ASO Treatment] Jurkat cells grown in 60 mm culture dish were activated with an anti-CD3 antibody (Cat. Number 16-0037, eBioscience) at […] and an anti-CD28 antibody (Cat. No. 16-0289, eBioscience) at 0.5 μg/mL for 48 hours. Then the culture medium was replaced with fresh medium, and treated with “PD-ASO 3” at 0 (negative control), 10, 100 or 1,000 aM for 24 hours. (4 culture dishes per ASO concentration) [RNA Extraction and cDNA Synthesis by One Step RT-PCR] Total RNA was extracted using RNAeasy mini prep kit (Qiagen, USA) according to the manufacturer's protocol. […] NO: 157); and PD-exon 5_reverse: (5'→3') […] NO: 158)]. Cycle conditions: 50° C. for 30 minutes and 94° C. for 2 minutes, which was followed by 30 cycles of 30 seconds at 94° C., 30 seconds at 53° C., and 1 minutes at 72° C. [Nested qPCR by SYBR] […] NO: 159); and PD-exon 2_reverse: (5'→3') […] NO: 160)] according to the following cycle conditions: 20 seconds at 95° C., 30 seconds at 56° C., and 40 seconds at 72° C. for 40 cycles. The qPCR reaction was probed with SYBR (Bio-Rad, USA).

human IL-2 mRNA = test: IL-2 qPCR in Jurkat cells; format: cell-based; conditions: 24 hours
Protocol: Down-regulation of the PD-1 activity has been known to upregulate the expression of interleukin 2 (IL-2). [Am. J. Clin. Oncol. Vol 39(1), 98-106 (2016)] […] [Cell Culture & ASO Treatment] Jurkat cells grown in 60 mm culture dish were activated with an anti-CD3 antibody (Cat. Number 16-0037, eBioscience) at 1 μg/mL and an anti-CD28 antibody (Cat. No. 16-0289, eBioscience) at 0.5 μg/mL for 48 hours. Then the culture medium was replaced with fresh medium, and treated with “PD-ASO 3” at 0 (negative control), 10, 100 or 1,000 aM for 24 hours. (4 culture dishes per ASO concentration) [RNA Extraction and cDNA Synthesis] Total RNA was extracted using RNeasy mini prep kit (Qiagen, USA) according to the manufacturer's protocol. […] [qPCR by SYBR] 1 μL of each cDNA solution was subjected to a 20 μL qPCR amplifications against a set of primers targeting the IL-2 mRNA [IL-2_forward: (5'→3') […] NO: 161); and IL-2_reverse: (5'→3') […] NO: 162)] according to the following cycle conditions: 20 seconds at 95° C., 30 seconds at 56° C., and 40 seconds at 72° C. for 40 cycles. The qPCR reaction was probed with SYBR (Bio-Rad, USA).

[1] = activated Jurkat cells, 1,000 aM

Row | Substance | Tm Value, 10-mer DNA against C-Terminal (10-mer complementary DNA) [°C] | Tm Value, 10-mer DNA against N-Terminal (10-mer complementary DNA) [°C] | skipping of AR exon 5 by nested PCR (human AR pre-mRNA; MCF7 cells of cumulus shape morphology, 30, 100 or 1,000 aM) | AR exon skipping by nested PCR (human AR pre-mRNA; MCF7 cells, 3, 30, 300 or 3,000 aM) | AR band (120K size) intensity by western blot (AR protein) | AR exon levels (SYBR Green), rebound (AR mRNA; 1 aM (1,000 zM)) | decrease of AR exon 4-6 levels (SYBR Green) (AR mRNA; 100 zM) | PD-1 exon skipping by nested PCR (human PD-1 pre-mRNA; Jurkat cells, 10 and 100 aM) | PD-1 exon skipping by nested PCR (human PD-1 pre-mRNA; Jurkat cells, 1,000 aM) | decrease of PD-1 mRNA level (nested qPCR) (human PD-1 mRNA; activated Jurkat cells, 10 and 100 aM) [%] | PD-1 mRNA level relative to the negative control level (nested qPCR) (human PD-1 mRNA; [1]) [%] | increase of IL-2 mRNA level (qPCR) (human IL-2 mRNA; activated Jurkat cells, 10 aM) [%] | increase of IL-2 mRNA level (qPCR) (human IL-2 mRNA; activated Jurkat cells, 100 aM) [%] | increase of IL-2 mRNA level (qPCR) (human IL-2 mRNA; [1]) [%]
1 | Fethoc-C(1O2)TT-A(5)CC-A(5)GG-C(1O2)AA(5)-G-NH2 (antisense CTTACCAGGCAAG; all peptide nucleic acid (PNA), [C(1O2)] at 1, 10, [A(5)] at 4, 7, 12, 5' {Fethoc}, 3' {NH2}; peptide nucleic acid backbone) [AR-ASO 1] | 81.3 | 86.1 | distinctively predominant | induce the skipping of exon 5, exons 4-5, and exons 4-6 | weaker than the intensity of their neighboring lysates | rebounded close toward the negative control levels | 40-50% |  |  |  |  |  |  | 
2 | Fethoc-CG(6)C-A(5)CC-TG(6)T-CA(5)C-C(1O2)C-NH2 (CGCACCTGTCACCC; splice-switching; all peptide nucleic acid (PNA), [G(6)] at 2, 8, [A(5)] at 4, 11, [C(1O2)] at 13, 5' {Fethoc}, 3' {NH2}; peptide nucleic acid backbone) [PD-ASO 3] |  |  |  |  |  |  |  | yielded a PCR product band corresponding to the skipping of exon 2 | the PCR product of exon 2 skipping disappeared | > 80 | ~55 | ~140 | 120 | 40
